Measurements as given in the supplement of paper PMC10307832.

Legend:
Experiment in all cases: relative viability (nuclei count vs DMSO), 5 days (fraction); higher = more cells survive
[1] = system: UMC-11
Method in brief: (§1)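 The day after seeding in 1536-well plates, lung cancer cell lines were treated by pin tool with a single drug, or with a fixed anchor-drug dose together with five library-drug doses (not always all listed) in √10 steps. After 5 days, a combined fix-and-stain solution (final 0.05% Triton X-100, 1% formaldehyde, 1 ug/ml Hoechst) was added. Nuclei counted on 4× images gave relative viability as treated counts over vehicle counts, reported as the median of duplicate plates.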

[2] = system: NCI-H23
Method in brief: as §1

[3] = system: NCI-H322M
Method in brief: as §1

[4] = system: LCLC-97TM1
Method in brief: as §1

[5] = system: NCI-H1355
Method in brief: as §1

[6] = system: NCI-H1993
Method in brief: as §1

[7] = system: NCI-H596
Method in brief: as §1

[8] = system: NCI-H1623
Method in brief: as §1

[9] = system: A549
Method in brief: as §1

Question: `Nc1ccn([C@@H]2O[C@H](CO)[C@@H](O)[C@@H]2O)c(=O)n1` [Cytarabine] + Cc1nc(Nc2ncc(C(=O)Nc3c(C)cccc3Cl)s2)cc(N2CCN(CCO)CC2)n1 [Dasatinib] (partner 0.075 µM) was tested. Which relative viability ([1]; first compound 0.005 µM) did it give?
Answer: Its relative viability is 0.279.

Question: And the relative viability ([1]; first compound 0.01581 µM)?
Answer: Its relative viability is 0.298.

Question: And the relative viability ([1]; first compound 0.05 µM)?
Answer: The relative viability was 0.379.

Question: What about the relative viability ([1]; first compound 0.1581 µM) of the same compound?
Answer: Its relative viability is 0.2.

Question: What about the relative viability ([1]; first compound 0.5 µM) of the same compound?
Answer: Its relative viability is 0.169.

Question: And the relative viability ([2]; first compound 0.005 µM)?
Answer: The relative viability was 0.864.

Question: And the relative viability ([2]; first compound 0.01581 µM)?
Answer: The relative viability was 0.541.

Question: What about the relative viability ([2]; first compound 0.05 µM) of the same compound?
Answer: Its relative viability is 0.655.

Question: What about the relative viability ([2]; first compound 0.1581 µM) of the same compound?
Answer: The relative viability was 0.236.

Question: What about the relative viability ([2]; first compound 0.5 µM) of the same compound?
Answer: Its relative viability is 0.187.

Question: And the relative viability ([3]; first compound 0.005 µM)?
Answer: The relative viability was 0.259.

Question: What about the relative viability ([3]; first compound 0.01581 µM) of the same compound?
Answer: The relative viability was 0.272.

Question: What about the relative viability ([3]; first compound 0.05 µM) of the same compound?
Answer: The relative viability was 0.26.

Question: What about the relative viability ([3]; first compound 0.1581 µM) of the same compound?
Answer: Its relative viability is 0.243.

Question: And the relative viability ([3]; first compound 0.5 µM)?
Answer: The relative viability was 0.274.

Question: What about the relative viability ([4]; first compound 0.005 µM) of the same compound?
Answer: The relative viability was 0.795.

Question: And the relative viability ([4]; first compound 0.01581 µM)?
Answer: The relative viability was 0.839.

Question: What about the relative viability ([4]; first compound 0.05 µM) of the same compound?
Answer: The relative viability was 0.798.

Question: What about the relative viability ([4]; first compound 0.1581 µM) of the same compound?
Answer: Its relative viability is 0.227.

Question: What about the relative viability ([4]; first compound 0.5 µM) of the same compound?
Answer: Its relative viability is 0.264.

Question: And the relative viability ([5]; first compound 0.005 µM)?
Answer: Its relative viability is 0.641.

Question: And the relative viability ([5]; first compound 0.01581 µM)?
Answer: The relative viability was 0.672.

Question: And the relative viability ([5]; first compound 0.05 µM)?
Answer: Its relative viability is 0.486.

Question: What about the relative viability ([5]; first compound 0.1581 µM) of the same compound?
Answer: The relative viability was 0.352.

Question: And the relative viability ([5]; first compound 0.5 µM)?
Answer: The relative viability was 0.369.

Question: What about the relative viability ([6]; first compound 0.005 µM) of the same compound?
Answer: Its relative viability is 0.74.

Question: What about the relative viability ([6]; first compound 0.01581 µM) of the same compound?
Answer: Its relative viability is 0.58.

Question: What about the relative viability ([6]; first compound 0.05 µM) of the same compound?
Answer: The relative viability was 0.523.

Question: What about the relative viability ([6]; first compound 0.1581 µM) of the same compound?
Answer: Its relative viability is 0.49.

Question: What about the relative viability ([6]; first compound 0.5 µM) of the same compound?
Answer: Its relative viability is 0.425.

Question: And the relative viability ([7]; first compound 0.005 µM)?
Answer: The relative viability was 0.606.

Question: And the relative viability ([7]; first compound 0.01581 µM)?
Answer: The relative viability was 0.477.

Question: And the relative viability ([7]; first compound 0.05 µM)?
Answer: Its relative viability is 0.601.

Question: And the relative viability ([7]; first compound 0.1581 µM)?
Answer: The relative viability was 0.48.

Question: And the relative viability ([7]; first compound 0.5 µM)?
Answer: Its relative viability is 0.427.

Question: And the relative viability ([8]; first compound 0.005 µM)?
Answer: Its relative viability is 0.479.

Question: And the relative viability ([8]; first compound 0.01581 µM)?
Answer: Its relative viability is 0.449.

Question: What about the relative viability ([8]; first compound 0.05 µM) of the same compound?
Answer: The relative viability was 0.286.

Question: What about the relative viability ([8]; first compound 0.1581 µM) of the same compound?
Answer: Its relative viability is 0.471.

Question: What about the relative viability ([8]; first compound 0.5 µM) of the same compound?
Answer: Its relative viability is 0.291.

Question: For `Nc1ccn([C@@H]2O[C@H](CO)[C@@H](O)[C@@H]2O)c(=O)n1` [Cytarabine] + N=C(N)NC(=N)NCCc1ccccc1 [Phenformin] (partner 250 µM), which relative viability ([1]; first compound 0.005 µM) is on record?
Answer: The relative viability was 0.245.

Question: And the relative viability ([1]; first compound 0.01581 µM)?
Answer: Its relative viability is 0.232.

Question: What about the relative viability ([1]; first compound 0.05 µM) of the same compound?
Answer: Its relative viability is 0.205.

Question: What about the relative viability ([1]; first compound 0.1581 µM) of the same compound?
Answer: Its relative viability is 0.195.

Question: And the relative viability ([1]; first compound 0.5 µM)?
Answer: The relative viability was 0.159.

Question: And the relative viability ([2]; first compound 0.005 µM)?
Answer: Its relative viability is 0.784.

Question: And the relative viability ([2]; first compound 0.01581 µM)?
Answer: Its relative viability is 0.649.

Question: And the relative viability ([2]; first compound 0.05 µM)?
Answer: Its relative viability is 0.721.

Question: And the relative viability ([2]; first compound 0.1581 µM)?
Answer: The relative viability was 0.367.

Question: What about the relative viability ([2]; first compound 0.5 µM) of the same compound?
Answer: Its relative viability is 0.156.

Question: What about the relative viability ([9]; first compound 0.005 µM) of the same compound?
Answer: The relative viability was 0.104.

Question: What about the relative viability ([9]; first compound 0.01581 µM) of the same compound?
Answer: Its relative viability is 0.127.

Question: What about the relative viability ([9]; first compound 0.05 µM) of the same compound?
Answer: The relative viability was 0.106.

Question: What about the relative viability ([9]; first compound 0.1581 µM) of the same compound?
Answer: The relative viability was 0.0512.

Question: What about the relative viability ([9]; first compound 0.5 µM) of the same compound?
Answer: Its relative viability is 0.0301.

Question: What about the relative viability ([3]; first compound 0.005 µM) of the same compound?
Answer: The relative viability was 0.704.

Question: And the relative viability ([3]; first compound 0.01581 µM)?
Answer: Its relative viability is 0.614.

Question: What about the relative viability ([3]; first compound 0.05 µM) of the same compound?
Answer: The relative viability was 0.53.

Question: What about the relative viability ([3]; first compound 0.1581 µM) of the same compound?
Answer: Its relative viability is 0.372.

Question: And the relative viability ([3]; first compound 0.5 µM)?
Answer: The relative viability was 0.337.

Question: What about the relative viability ([4]; first compound 0.005 µM) of the same compound?
Answer: Its relative viability is 0.426.

Question: And the relative viability ([4]; first compound 0.01581 µM)?
Answer: Its relative viability is 0.34.

Question: And the relative viability ([4]; first compound 0.05 µM)?
Answer: The relative viability was 0.354.

Question: And the relative viability ([4]; first compound 0.1581 µM)?
Answer: Its relative viability is 0.201.

Question: And the relative viability ([4]; first compound 0.5 µM)?
Answer: The relative viability was 0.168.

Question: What about the relative viability ([5]; first compound 0.005 µM) of the same compound?
Answer: Its relative viability is 0.353.

Question: What about the relative viability ([5]; first compound 0.01581 µM) of the same compound?
Answer: Its relative viability is 0.428.

Question: And the relative viability ([5]; first compound 0.05 µM)?
Answer: Its relative viability is 0.382.

Question: And the relative viability ([5]; first compound 0.1581 µM)?
Answer: The relative viability was 0.254.

Question: And the relative viability ([5]; first compound 0.5 µM)?
Answer: The relative viability was 0.261.

Question: And the relative viability ([6]; first compound 0.005 µM)?
Answer: The relative viability was 0.588.

Question: And the relative viability ([6]; first compound 0.01581 µM)?
Answer: The relative viability was 0.483.

Question: What about the relative viability ([6]; first compound 0.05 µM) of the same compound?
Answer: Its relative viability is 0.529.

Question: And the relative viability ([6]; first compound 0.1581 µM)?
Answer: The relative viability was 0.515.

Question: And the relative viability ([6]; first compound 0.5 µM)?
Answer: Its relative viability is 0.422.

Question: What about the relative viability ([7]; first compound 0.005 µM) of the same compound?
Answer: Its relative viability is 0.801.

Question: And the relative viability ([7]; first compound 0.01581 µM)?
Answer: Its relative viability is 0.613.

Question: And the relative viability ([7]; first compound 0.05 µM)?
Answer: Its relative viability is 0.694.

Question: What about the relative viability ([7]; first compound 0.1581 µM) of the same compound?
Answer: The relative viability was 0.624.

Question: And the relative viability ([7]; first compound 0.5 µM)?
Answer: Its relative viability is 0.447.

Question: What about the relative viability ([8]; first compound 0.005 µM) of the same compound?
Answer: Its relative viability is 0.432.

Question: And the relative viability ([8]; first compound 0.01581 µM)?
Answer: Its relative viability is 0.396.

Question: And the relative viability ([8]; first compound 0.05 µM)?
Answer: Its relative viability is 0.357.

Question: And the relative viability ([8]; first compound 0.1581 µM)?
Answer: The relative viability was 0.402.

Question: What about the relative viability ([8]; first compound 0.5 µM) of the same compound?
Answer: The relative viability was 0.431.
